{
  "source": "patent US6960692B2",
  "about": "“Diaryl sulfide derivative, addition salt thereof, and immunosuppressant” (Kyorin Pharmaceutical Co., Ltd., priority 2001, dated 2005)",
  "key": {"male C3H/HeN mice": {"system": "male C3H/HeN mice", "test": "Ability of test compounds to suppress graft host vs rejection in mice (popliteal lymph node weight)", "format": "in vivo", "details": "right popliteal lymph node weight 4 days after injection of BALB/c stimulation cells", "excerpt": "Ability of Test Compounds to Suppress Graft Host vs Rejection in Mice […] Spleens were collected from 9 to 11 week old male BALB/c mice (CLEA JAPAN Inc., CHARLES RIVER JAPAN Inc., or JAPAN SLC Inc.). The spleens were placed in a phosphate-buffered saline (PBS(-), NISSUI PHARMACEUTICAL Co., Ltd.) or in an RPMI-1640 medium (GIBCO […] Inc., or IWAKI GLASS Co., Ltd.) and were either passed through a stainless steel mesh, or gently pressed between two slide glasses and then passed through a cell strainer (70 μm, Falcon), to form a cell suspension. The suspension was then centrifuged and the supernatant was discarded. An ammonium chloride-Tris isotonic buffer was added to the suspension to lyse erythrocytes. The cells were then centrifuged and washed three times in PBS (-) or RPMI-1640 medium and were resuspended in an RPMI-1640 medium. […] The cells were again centrifuged and washed in PBS (-) or RPMI-1640 medium and were resuspended in an RPMI-1640 medium so that the medium would contain 2.5×10^8 cells/mL. This suspension served as a “stimulation cell suspension.” Using a 27G needle along with a microsyringe (Hamilton), 20 μL (5×10^6 cells/mouse) of the stimulation cell suspension was subcutaneously injected into the right hind footpad of 7 to 9 week old male C3H/HeN mice (CLEA JAPAN Inc., CHARLES RIVER JAPAN Inc., or JAPAN SLC Inc.). […]"}, "male BALB/c mice": {"system": "male BALB/c mice", "test": "Ability of test compounds to suppress delayed-type hypersensitivity in mice (DNFB, ear thickness)", "format": "in vivo", "details": "dose 1 mg/kg orally 30 minutes before DNFB challenge; ear thickness increase 24 hours after the challenge", "protocol": "<Experiment 2> Ability of Test Compounds to Suppress Delayed-Type Hypersensitivity in Mice. […] The sensitization was done for 2 consecutive days (day 0 and day 1). On day 5, the mice were challenged with the antigen to induce delayed-type hypersensitive responses: First, the initial thickness of each ear was measured by the dial thickness gauge G (0.01-10 mm, OZAKI MFG Co., Ltd.) and a test compound was administered. 30 minutes after the administration, 10 μL of a 0.2% (v/v) DNFB solution was applied to the inner and outer surfaces of the right ear of each animal for antigen challenge. The left ear of each animal was challenged with the solvent alone. 24 hours after the challenge, the increase in the ear thickness was measured for each ear and the difference in thickness between the right and the left ears was determined for each individual. The test compound was dissolved, or suspended, in an ultra pure water and was orally administered at a dose of 0.1 mL/10 g of body weight. A control group was administered ultra pure water alone."}},
  "data": [
    {"smiles": "Cl.NC(CO)(CO)CCCc1ccc(Sc2cccc(OCc3ccccc3)c2)cc1Cl", "note": "[Example 36, 2-amino-2-[4-(3-benzyloxyphenylthio)-2-chlorophenyl]propyl-1,3-propanediol hydrochloride]", "values": [
      {"measurement": "Inhibition (%)", "setting": "male C3H/HeN mice; dose 0.03 mg/kg intraperitoneally once a day for four consecutive days", "result": 85, "unit": "%"},
      {"measurement": "Inhibition (%)", "setting": "male BALB/c mice", "result": 86, "unit": "%"},
      {"measurement": "melting point", "result": "132 to 133", "unit": "°C"}
    ]},
    {"smiles": "Cl.NC(CO)(CO)CCc1ccc(Sc2cccc(OCc3ccccc3)c2)cc1Cl", "note": "[Example 46, 2-amino-2-[4-(3-benzyloxyphenylthio)-2-chlorophenyl]ethyl-1,3-propanediol Hydrochloride]", "values": [
      {"measurement": "Inhibition (%)", "setting": "male C3H/HeN mice; dose 0.3 mg/kg intraperitoneally once a day for four consecutive days", "result": 80, "unit": "%"}
    ]}
  ]
}
